The values below come from article PMC9227536, “Prediction of Pharmacokinetics of IDP-73152 in Humans Using Physiologically-Based Pharmacokinetics” (Pharmaceutics, 2022).

One data set in a line: in vitro. The class given is in vitro ADME. The following applies: microsomes. The protocol:
The unbound fractions of IDP-73152 in various matrices were measured according to the manufacturer’s instructions for the rapid equilibrium dialysis (RED) device (ThermoFisher Scientific, Waltham, MA, USA). Briefly, IDP-73152 was added to the plasma or the microsomal/hepatocyte incubation buffer from various species (i.e., mouse, rat, dog, and human for microsomal incubation; rat for hepatocyte incubation) to obtain final concentrations of the compound at 0.3, 1, and 3 μM. After the membrane insert was placed in the RED plate, the solution containing IDP-73152 was added (400 µL) to the sample chamber, and the dialysis buffer (600 μL) was added to the buffer chamber. The RED plate was sealed with parafilm and then incubated at 37 °C in the orbital shaker (Lab Companion, Daejeon, Korea) at 100 rpm for 5 h. After a 50 μL aliquot was aspirated from both the sample and buffer chambers, an equal volume of protein-free buffer or blank medium was replaced in the aspirated sample or buffer to render the matrices compositionally identical. The IDP-73152 concentration in the buffer/sample chambers (i.e., CBuffer Chamber and CSample Chamber) was determined by an assay. Thus, the fraction unbound was defined as:(2) % Fraction unbound=(CBuffer Chamber/CSample Chamber)×100%

Data set [1] is described as follows: PBPK model prediction, mice. The text has this: (§1) In this study, the PBPK model involving ten tissues (i.e., adipose tissue, brain, heart, kidney, liver, lung, muscle, skin, spleen, and testis (Figure 2; see Appendix A for detailed mathematical descriptions)) was considered to be applicable for the description of IDP-73152 PK in rats, mice, dogs, and humans. Physiological variables were obtained from the literature; they are summarized in Supplementary Table S1.
(§2) For the estimation of the volume of the distribution of IDP-73512 in rats, the steady-state volume of distribution (Vss) was calculated using the following equation [30]:(10) Vss=VP+Vrbc×EP+∑VT,i×KP,ss,i, where Vp, Vrbc, and VT,i are the volumes of plasma, red blood cells, and tissues, respectively. The erythrocyte-to-plasma partition coefficient (EP), is calculated by EP=1+(BP−1)/Hematocrit . The KP,ss for each tissue obtained from Equation (8) was applied for Equation (10). For the case of non-eliminating organs, the KP,ss was regarded as the tissue-to-plasma partition coefficient (KP) in PBPK equations (Appendix A). For the case of the liver—i.e., the eliminating organ—the KP,ss (KP,ss,LI) had to be corrected to account for the equilibrium being altered by the elimination. Thus, a PBPK-operative KP for liver (KP,LI) was calculated using the following equation [31]:(11) KP,LI=KP,ss,LI/(1−ER), where ER is the hepatic extraction ratio of the compound (i.e., CLh/(QLI·BP)). In this study, a compartmental absorption and transit (CAT) model consisting of stomach and five intestinal segments was considered for the description of the intestinal absorption kinetics of IDP-73152 in animals and humans. We assumed that the initial compartment denoted the stomach (Equation (12)), and the subsequent three compartments represented the small intestine and two additional compartments for the large intestine (i.e., a total of six compartments, with absorption occurring in the five intestinal compartments) (Equation (13)). The differential equations describing the rate of drug absorption and transit in the gastrointestinal tract can be written as:
For the intestine, viz. i = 1~5:(13) dMi/dt=Kt,i−1×Mi−1−(Kt,i+ka,i)×Mi, where Ms is the amount of drug in the stomach; Mi is the amount of drug in the i-th intestinal segment; Ks, Kt,i, and ka,i are the rate constants of gastric emptying, intestinal transit, and the segmental absorption rate, respectively. In Equation (13) at i = 1, Kt,0 and M0 represent Ks and Ms, respectively. […] The absorption rate constant in the intestinal segments in humans, ka,i,human, was assumed to be identical along the segments and calculated as follows: first, Peff was empirically estimated from the Caco-2 cell permeability (Papp):(14) LogPeff=0.4926×LogPapp−0.1454 […]

Data set [2] can be described thus: PBPK model prediction, humans.
Source text: as §1, §2
For the intestine, viz. i = 1~5:(13) dMi/dt=Kt,i−1×Mi−1−(Kt,i+ka,i)×Mi, where Ms is the amount of drug in the stomach; Mi is the amount of drug in the i-th intestinal segment; Ks, Kt,i, and ka,i are the rate constants of gastric emptying, intestinal transit, and the segmental absorption rate, respectively. […] The absorption rate constant in the intestinal segments in humans, ka,i,human, was assumed to be identical along the segments and calculated as follows: first, Peff was empirically estimated from the Caco-2 cell permeability (Papp):(14) LogPeff=0.4926×LogPapp−0.1454
Then, ka,i,human for the intestinal segments i = 1~5 was calculated by (15) ka,1~5,human=2×Peff/R […]

The structures appear in SMILES notation.

As for `CC(C)(C)[C@H](NC(=O)[C@H](CC1CCCC1)CN(O)C=O)C(=O)N1CCC(NCc2cc(F)c(F)cc2F)CC1` [IDP-73152], the fraction unbound at 5 h was 0.507 ± 0.04 in “in vitro” (dog), 0.579 ± 0.006 in “in vitro” (human), 0.571 ± 0.023 in “in vitro” (mouse) and 0.439 ± 0.043 in “in vitro” (rat). Moreover, the AUC ratio in data set [1] (intravenous 10 mg/kg) is recorded as 1.15; in data set [1] (oral 20 mg/kg), 0.880; in data set [2] (oral 640 mg), 1.00; in data set [2] (oral 1280 mg), 1.12. Also, the “Cmax ratio without the scaling (SF)” value in data set [1] (oral) is on record as 1.72. In addition, the Cmax ratio in data set [1] (oral 20 mg/kg) is 0.906; in data set [2] (oral 640 mg) it was 0.498; in data set [2] (oral 1280 mg), 0.671.

Usually fraction unbound stands for the share of the substance not bound to proteins or other matrix. Read a high fraction unbound as weak binding.
